Calls of active or inactive are those of the source.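 The calls were made as follows: active = maximal inhibition of USP17 at or above 30% in the confirmation dose-response, a value not among the printed readouts; inactive = the rest.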

This assay deals with Ubiquitin carboxyl-terminal hydrolase 17-like protein 5 (Homo sapiens) (UniProt A8MUK1). Nature of the assay: ubiquitin-specific protease 17 inhibitors, concentration series, biochemical, verification of primary actives (AID 1645864). The conditions noted are these: purified USP17, ubiquitin-rhodamine cleavage fluorescence, 3 h.
Chain of Ubiquitin carboxyl-terminal hydrolase 17-like protein 5 (Homo sapiens) (A8MUK1 whole entry, looked up): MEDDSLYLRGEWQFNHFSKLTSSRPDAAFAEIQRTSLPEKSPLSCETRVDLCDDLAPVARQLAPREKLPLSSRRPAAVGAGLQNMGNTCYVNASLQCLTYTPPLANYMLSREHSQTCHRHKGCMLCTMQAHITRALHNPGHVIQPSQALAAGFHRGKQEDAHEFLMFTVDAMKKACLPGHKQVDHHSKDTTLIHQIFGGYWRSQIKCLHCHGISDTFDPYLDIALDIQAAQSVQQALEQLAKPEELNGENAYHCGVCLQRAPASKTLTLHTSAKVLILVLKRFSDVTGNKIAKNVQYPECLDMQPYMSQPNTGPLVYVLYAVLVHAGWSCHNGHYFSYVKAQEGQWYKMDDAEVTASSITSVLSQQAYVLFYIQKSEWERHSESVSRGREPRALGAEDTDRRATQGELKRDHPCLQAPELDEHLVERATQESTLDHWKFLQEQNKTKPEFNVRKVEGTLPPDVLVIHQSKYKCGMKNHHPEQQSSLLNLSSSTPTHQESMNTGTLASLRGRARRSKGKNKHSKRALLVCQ
Turning to `CCOc1ccccc1NC(=O)Cn1c(-c2ccc3c(c2)OCO3)cn(-c2ccc(OC)cc2)c1=O`, the IC50 was > 50 µM (inactive).

As to `CNc1nc2c(c(=O)n1Cc1ccccc1)CN(C(=O)c1ccc(CN)cc1)CC2`, the IC50 was 28.3 µM.

With `Cc1nnc(NCc2cccnc2)c2c1nnn2Cc1ccccc1Cl`, the IC50 is 34 µM. As to `CC(C)NC(=O)Cn1ccn2nc(-c3ccc(Cl)cc3)cc2c1=O`, the IC50 was 3.85 µM.

For the molecule `C[C@@H]1OC2=C(C(=O)c3cccc(O)c3C2=O)[C@H](O)[C@@H]1O`, the concentration for half-maximal inhibition (IC50) was 0.31 µM. Take `CCC/C=C\C#CC/C=C\CCCCCCCC(=O)O`: the IC50 is 2.37 µM. Consider `Cc1cc(C)c2cc3c(nc2c1)OC(=O)N(Cc1ccco1)C3`, for which the concentration for half-maximal inhibition (IC50) is 30.9 µM. Consider `Cc1oc(-c2ccc(C(=O)NCC3COCCO3)cc2)nc1CN1CCc2ccccc21` (centres undefined), for which the IC50 is > 50 µM (inactive).

Turning to `CCc1ccc(Nc2cc(C(=O)NCCCOC(C)C)c3ccccc3n2)cc1`, the IC50 is 10.7 µM.

Turning to `Cn1c(=O)[nH]c2nncnc2c1=O`, the IC50 is 7.23 µM.

As for `O=C(CCn1c(=O)c2sccc2n(CC(=O)OCc2ccccc2)c1=O)NCc1ccc2c(c1)OCO2`, the IC50 is 14.1 µM. For `O=C(O)c1ccccc1C(=O)Nc1ccc(SC(C(=O)Nc2ccccc2)c2ccccc2)cc1` (centres undefined), the IC50 is > 50 µM (inactive). Under `Cc1cccc(NC(=O)CN2C(=O)CC(c3ccccc3)S(=O)(=O)c3ccccc32)c1C` (centres undefined) stands 25.3 µM; under `Nc1c(-c2ccc(Cl)cc2)cnc2cc(-c3ccc(Cl)c(Cl)c3)nn12`, 3.37 µM.

Take `Cc1ccc(NC(=O)c2cc(=O)n(C)c3c2c(=O)n(C)c(=O)n3C)c(C)c1`: the IC50 was > 50 µM (inactive).

Turning to `CNC(=O)CC1NC(=O)c2csc(n2)-c2ccc(-c3nc(C4=NC(C(=O)N5CCCC5C(N)=O)CO4)cs3)nc2-c2csc(n2)-c2csc(n2)C(C(O)c2ccccc2)NC(=O)CNC(=O)c2nc(sc2COC)C(C(C)C)NC(=O)c2nc1sc2C` (centres undefined), the 50% inhibitory concentration (IC50) is 29.6 µM. `O=[N+]([O-])c1cccc(CSc2nnc(/C=C/c3ccccc3)o2)c1`: the IC50 was > 50 µM (inactive). As to `COc1c(Cl)ccc2c(=O)c3c(O)c4c5c(c3oc12)OCO[C@H]5[C@@H](OC)c1cc2c(c(O)c1-4)C(=O)N(C)[C@H](OC)[C@@H]2O`, the IC50 was > 50 µM (inactive). As to `O=C(COC(=O)c1ccc(NS(=O)(=O)c2ccc3c(c2)OCCO3)cc1)NCc1ccc(Cl)cc1`, the IC50 is > 50 µM (inactive). The figure for `COc1ccccc1NC(=O)Cn1cc(C(=O)c2ccc(C)cc2)c(=O)c2ccccc21` is 22.9 µM; for `CCOc1ccc(NC(=O)Cn2cnc(S(=O)(=O)N3CCc4ccccc43)c2)cc1` it is 23.6 µM; for `CC(C)c1cc2c(c(O)c1O)[C@@]13CCCC(C)(C)[C@@H]1C[C@@H]2OC3=O` it is 19.5 µM. As for `COCCCN1CCS(=O)(=O)c2c(Cl)c(F)nc(Oc3ccc(C#N)cc3)c21`, the IC50 is > 50 µM (inactive). As to `O=C(O)C1CCN(Cc2c(-c3ccco3)nc3ccc(Cl)cn23)CC1`, the IC50 is > 50 µM (inactive). Take `COc1ccc(C(=O)Nc2ccc3c(c2)C(=O)N(C)c2ccccc2O3)cc1`: the IC50 is > 50 µM (inactive). Regarding `COC(=O)[C@]1(O)O[C@@]2(C(=O)OC)c3c(oc4cc(C)cc(O)c4c3=O)[C@H]3c4c(oc5cc(C)cc(O)c5c4=O)C[C@H]1[C@H]32`, the IC50 is > 50 µM (inactive).

On to `CCOC(=O)[C@@H]1[C@@H](c2ccccc2)CN2CCN(C(=O)c3cnccn3)C[C@H]12`, for which the IC50 was > 50 µM (inactive).

For `Oc1sc(C=Nc2cc(Cl)ccc2Cl)c2ccccc12`, the IC50 was 1.46 µM. The figure for `CC(=O)c1ccc(NC(=O)C2CCN(c3cncnc3N3CCCC3)CC2)cc1` is > 50 µM (inactive); for `CO/C=C/C(=O)c1cc2cnc3c(=N)cc(NC(C)=O)c([nH]1)c23` it is > 50 µM (inactive); for `COc1ccccc1-c1nc(Cn2nnc(C(=O)Nc3cc(C)cc(C)c3)c2N)c(C)o1` it is 22.3 µM. With `Cc1ccc(S(=O)(=O)c2cnc(SCC(=O)Nc3ccc(Cl)cc3)nc2N)cc1C`, the IC50 is 29.8 µM. Consider `Cc1ccc2oc(=O)c(S(=O)(=O)N3CCCCC3)cc2c1`, for which the half-maximal inhibitory concentration (IC50) is 16.4 µM. On to `COc1ccc(-c2nonc2NC(=O)C(c2ccccc2)c2ccccc2)cc1OC`, for which the IC50 is > 50 µM (inactive). Consider `Cc1cccc(Cl)c1NC(=O)Nc1ccc(NC(=O)c2ccccc2O)cc1`, for which the IC50 is 35.4 µM. For the molecule `COc1ccc(CCNC(=O)CCn2c(=O)c3ccccc3n(Cc3ccc(C)cc3)c2=O)cc1OC`, the IC50 is 28.6 µM.

Take `COc1ccc(-c2cc3c(=O)n(CC(=O)Nc4ccccc4Cl)ccn3n2)cc1`: the IC50 was 5.49 µM. The figure for `O=C(COc1ccccc1-c1nnc(-c2ccccc2)o1)Nc1ccc(F)cc1F` is 1.87 µM; for `Cn1c(=O)[nH]c(=O)c2c1nc1n(CCc3ccccc3)c(-c3ccccc3)cn21` it is 33.1 µM; for `COc1ccc(S(=O)(=O)N(C)Cc2cccs2)cc1OC` it is > 50 µM (inactive). For the molecule `COC1/C=C/OC2(C)Oc3c(C)c(O)c4c(c3C2=O)C(=O)C=C(NC(=O)/C(C)=C\C=C\C(C)C(O)C(C)C(O)C(C)C(OC(C)=O)C1C)C4=O` (centres undefined), the IC50 is 18.7 µM.

For `O=c1c(OC2O[C@H](CO)[C@H](O)[C@H](O)[C@H]2O)c(-c2ccc(O)cc2)oc2cc(O)cc(O)c12` (some centres undefined), the IC50 is 46.8 µM.

`O=C(Nc1cccc(Cl)c1)N1CCC(c2cc(-c3ccco3)n[nH]2)CC1`: the IC50 was 3.52 µM.

Turning to `Cc1cc(/C=C2/C(=N)N3C(c4ccccc4)=CSC3=NC2=O)c(C)n1-c1ccc(F)cc1`, the IC50 was > 50 µM (inactive).

As to `Cc1cc(O)c(Oc2cc(C)cc(O)c2O)c(O)c1`, the IC50 was 26.6 µM. For `CCCc1nc2sc3c(NCCc4ccc(OC)c(OC)c4)ncnc3c2c2c1CCC2`, the IC50 is > 50 µM (inactive).

In the case of `Cc1ccccc1C(=O)OCCN1C(=O)c2cccc3c(N4CCCCC4)ccc(c23)C1=O`, the IC50 was > 50 µM (inactive). `Cc1ccc(Cc2nc(-c3ccc(=O)[nH]c3)no2)cc1`: the IC50 was > 50 µM (inactive).

`COCC(C)Nc1ncc(-c2cnccn2)c(-c2ccc(C)s2)n1` (centres undefined): the IC50 is > 50 µM (inactive). Under `CCOc1ccc(C2=NCCNC3=C2C(c2ccccc2)N(c2ccccc2)C3=O)cc1` (centres undefined) stands > 50 µM (inactive). Under `O=C(CCn1c(=O)c2ccccc2n(Cc2cc(=O)n3ccccc3n2)c1=O)NCCc1ccc(Cl)cc1` stands 31.5 µM; under `O=C(NCc1ccc2c(c1)OCO2)c1[nH]nc2c1COc1ccccc1-2`, 1.84 µM. Take `CNC(=O)c1cc2c(=O)n3cccc(C)c3nc2n1Cc1ccccc1`: the IC50 was 2.36 µM. Turning to `COc1ccc(CNC(=O)CCc2nc3sc4c(c3c(=O)[nH]2)CCCCC4)cc1`, the IC50 was > 50 µM (inactive). In the case of `CCC(=O)Nc1nc2cc(NC(=O)Nc3cc(C)cc(C)c3)ccc2s1`, the IC50 was 3.21 µM. On to `Cc1ccc(-n2c(-c3ccccc3)cn3c4c(=O)[nH]c(=O)n(C)c4nc23)cc1Cl`, for which the IC50 was 0.226 µM. Under `Cc1cc(C)n(-c2ccc(C(=O)Nc3cccc(S(=O)(=O)N4CCCC4)c3)cc2)n1` stands 23 µM.

With `Cc1ccc(Nc2nc(NCCc3ccccc3)nc3c2cnn3C)cc1`, the IC50 was 44.6 µM. In the case of `O=C(NCc1nc2ccccc2[nH]1)c1cccc(S(=O)(=O)N2CCc3ccccc32)c1`, the IC50 was > 50 µM (inactive). Turning to `Cc1ccc(Cn2nnc(-c3noc(-c4ccc[nH]4)n3)c2C)cc1`, the IC50 is > 50 µM (inactive). Take `Cn1c(CCN2CCCC2)nc2cc(NC(=O)c3ccccc3)ccc21`: the IC50 is > 50 µM (inactive). Under `COc1cc(Cl)ccc1Nc1ncc(C(=O)Nc2cc(OC)c(OC)c(OC)c2)c2ccccc12` stands less than 0.05 µM; under `O=c1c(NCCCN2CCCC2)nc2ccncc2n1Cc1ccccc1`, 29.3 µM. As for `COc1ccc(N(CC(=O)NC2CCCCC2)C(=O)c2ccc(-c3ccccc3)[nH]2)cc1OC`, the IC50 is 3.04 µM.

As to `Cc1nc2cc(C(=O)NCCC3=CCCCC3)ccc2n1-c1cccc(F)c1`, the IC50 was > 50 µM (inactive).

`Cc1cc(C)n(-c2ccc(C(=O)NCc3ccc(F)cc3)cn2)n1`: the IC50 was 33.9 µM.

As to `Cc1cc(C)c(NC(=O)Cn2c(=O)n(CCC(=O)NCc3ccc4c(c3)OCO4)c(=O)c3sccc32)c(C)c1`, the IC50 was 3.02 µM. Turning to `Cc1cccc(S(=O)(=O)N2CCc3nc4ccccc4n3CC2)c1`, the IC50 is 24.4 µM. With `COc1cnc(-c2ccccn2)nc1Sc1ccccc1Cl`, the IC50 was 16.2 µM. On to `COCCNC(=O)c1cc(-c2cn(-c3ccccn3)c(C)n2)n2ccccc12`, for which the IC50 is > 50 µM (inactive). On to `COc1ccc(COC(=O)C2=C(C)NC(=O)CC2c2cccc([N+](=O)[O-])c2)cc1` (centres undefined), for which the IC50 is > 50 µM (inactive).

Consider `Cc1c(-c2nnc(-c3ccccn3)o2)nnn1-c1cccc(Cl)c1`, for which the IC50 was 35.1 µM. For the molecule `COc1ccc(NC(=O)C2CCCN(S(=O)(=O)N3CCCCCC3)C2)cc1` (centres undefined), the IC50 is 29.7 µM. Turning to `O=C1C[C@@H](O)[C@H](O)[C@@]23O[C@@]12C1(Oc2cccc4cccc(c24)O1)[C@@H]1O[C@@H]1[C@@H]3O`, the IC50 was 22 µM. The figure for `Cc1cc(=O)n(CC(=O)Nc2ccccc2F)c(Nc2ccc(F)cc2)n1` is 12.9 µM.

As to `CS(=O)(=O)N1CCCc2cc(C(=O)Nc3ccc4c(c3)OCO4)ccc21`, the IC50 is > 50 µM (inactive). For `CCn1cc(-c2nc(-c3ccccc3)no2)c(=O)c2cc(F)ccc21`, the IC50 was 2.34 µM. On to `O=C(CN1CCCc2ccccc21)Nc1ccc(N2CCOCC2)cc1`, for which the IC50 is > 50 µM (inactive). Consider `Cc1oc(C2CC2)cc1C(=O)N1CCC2(CC1)CC1(CO2)Nc2ccccc2-n2cccc21` (centres undefined), for which the IC50 was > 50 µM (inactive). For `Cc1ccc(S(=O)(=O)N2CCC3(CC2)NC(=O)c2ccccc2N3)cc1C`, the IC50 was 29.8 µM. The figure for `COc1ccc(C(=O)Nc2cc(-c3ccccn3)no2)cn1` is > 50 µM (inactive); for `Cc1nnc(NC(=O)C2CCN(c3ccc(S(N)(=O)=O)cc3[N+](=O)[O-])CC2)o1` it is 29.5 µM. Take `COc1ccc(NC(=O)CSc2nc(N)c3c4c(sc3n2)COC(C)(C)C4)cc1`: the half-maximal inhibitory concentration (IC50) is 42.5 µM. The figure for `COc1cc(NC(=O)Cc2ccccc2)ccc1NC(=O)c1cc2ccccc2o1` is 9.82 µM.

These data come from PubChem BioAssay AID1645864 (Buhrlage Lab, Dana-Farber Cancer Institute and Novartis …, 2021).
